Literature values in patent US20230181690A1, “METHODS FOR TREATING ANEMIA USING AN ACTRIIB LIGAND TRAP AND FEDRATINIB” (Celgene Corporation, priority 2020, published 2023).
Residue numbers refer to the chain shown, from its start. Values belong to the molecule of their own block, whether it stands above or below them.

Legend:
[1] = test system: MPN-associated myelofibrosis
[2] = test system: cell models expressing mutationally active JAK2 or FLT3
[3] = test system: JAK2V617F-driven myeloproliferative disease; conditions: mouse, in vivo
[4] = test system: cell models expressing mutationally active JAK2 or FLT3; remark: listed apart in the source
[5] = test system: intermediate-2 or high-risk MF; conditions: previously untreated patients with intermediate-2 or high-risk MF
GDF-11 = biological target: T1, GDF-11 (Homo sapiens, UniProt O95390)
T1 sequence (O95390 299-407): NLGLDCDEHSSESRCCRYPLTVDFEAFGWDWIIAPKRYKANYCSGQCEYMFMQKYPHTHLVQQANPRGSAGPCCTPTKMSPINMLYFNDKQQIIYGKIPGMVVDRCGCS

Molecule: Cc1cnc(Nc2ccc(OCCN3CCCC3)cc2)nc1Nc1cccc(S(=O)(=O)NC(C)(C)C)c1 [fedratinib, N-tert-butyl-3-[(5-methyl-2-{4-[2-(pyrrolidin-1-yl)ethoxy]anilino}pyrimidin-4-yl)amino]benzenesulfonamide]
potency for JAK2 over family members JAK1, JAK3 and TYK2 (Janus Kinase 2 (JAK2)): higher potency for JAK2 over family members JAK1, JAK3 and tyrosine kinase 2 (TYK2)
thrombocytopenia and anemia associated with therapy ([1]; patients): can be associated with moderate to severe thrombocytopenia and anemia
phosphorylation of STAT3/5 proteins [2]: reduced phosphorylation
disease-associated symptoms [3]: improved disease-associated symptoms, including reduction of white blood cells, hematocrit, splenomegaly, and fibrosis
phosphorylation of STAT3/5 [3]: blocked phosphorylation of STAT3/5
cell proliferation [4]: inhibited cell proliferation
clinical efficacy [5]: demonstrated clinical efficacy

exacerbation of anemia ([1]; patients with MPN-associated myelofibrosis): can exacerbate the anemia
Molecule: N#CC[C@H](C1CCCC1)n1cc(-c2ncnc3[nH]ccc23)cn1 [ruxolitinib]

affinity for GDF-11 (GDF-11): relatively low affinity
B1: A64: Fc fusion protein having the ActRIIB extracellular sequence with an alanine at position 64 of SEQ ID NO:2 (protein)
chain: SGRGEAETRECIYYNANWELERTNQSGLERCEGEQDKRLHCYASWANSSGTIELVKKGCWLDDFNCYDRQECVATEENPQVYFCCCEGNFCNERFTHLPEAGGPEVTYEPPPTAPTGGGTHTCPPCPAPELLGGPSVFLFPPKPKDTLMISRTPEVTCVVVDVSHEDPEVKFNWYVDGVEVHNAKTKPREEQYNSTYRVVSVLTVLHQDWLNGKEYKCKVSNKALPVPIEKTISKAKGQPREPQVYTLPPSREEMTKNQVSLTCLVKGFYPSDIAVEWESNGQPENNYKTTPPVLDSDGSFFLYSKLTVDKSRWQQGNVFSCSVMHEALHNHYTQKSLSLSPGK
modifications: fusion protein comprising a soluble extracellular domain of ActRIIB (A64; SEQ ID NO 3) fused to an Fc domain
affinity for activin (activin): relatively low affinity

affinity for GDF-11 (GDF-11): low nanomolar to high picomolar range
B2: R64: Fc fusion protein with an arginine at position 64 of the ActRIIB precursor amino acid sequence (protein)
chain: B1 chain with A46R
modifications: fusion protein comprising a soluble extracellular domain of ActRIIB (R64; SEQ ID NO15) fused to an Fc domain
affinity for activin (activin): low nanomolar to high picomolar range

binding to GDF-11 relative to ActRIIB(20-134)-Fc (GDF-11): reduced binding
binding to activin relative to ActRIIB(20-134)-Fc (activin): reduced binding
B3: ActRIIB(20-119)-Fc: ActRIIB-Fc fusion protein containing amino acids 20-119 of SEQ ID NO:14 (SEQ ID NO:18) (protein)
chain: GRGEAETRECIYYNANWELERTNQSGLERCEGEQDKRLHCYASWRNSSGTIELVKKGCWLDDFNCYDRQECVATEENPQVYFCCCEGNFCNERFTHLPEA
modifications: human ActRIIB soluble (extracellular), processed polypeptide sequence with the C-terminal 15 aa deleted (aa 20-119 of SEQ ID NO14)
